Reference: the NIST ThermoML archive (doi:10.1021/je049776w)

Assay: xn = mol fraction of the nth substance listed
Conditions: 101.3 kPa, Liquid

Cc1ccc(C)cc1 [1,4-dimethylbenzene] + CCCCCCC
Conditions | mass density [kg/m3] | viscosity [mPa·s]
298.15 K, x1 = 0.0948 | 694.32 | 0.4074
298.15 K, x1 = 0.1911 | 709.39 | 0.4176
298.15 K, x1 = 0.288 | 725.04 | 0.4295
298.15 K, x1 = 0.3865 | 741.5 | 0.4436
298.15 K, x1 = 0.4856 | 758.54 | 0.4598
298.15 K, x1 = 0.5861 | 776.51 | 0.4807
298.15 K, x1 = 0.6877 | 795.16 | 0.5047
298.15 K, x1 = 0.7906 | 814.74 | 0.5331
298.15 K, x1 = 0.8949 | 835.24 | 0.5714
298.15 K, x1 = 1 | 856.7 | 0.6162
303.15 K, x1 = 0.0948 | 690.05 | 0.382
303.15 K, x1 = 0.1911 | 705.12 | 0.3912
303.15 K, x1 = 0.288 | 720.75 | 0.4019
303.15 K, x1 = 0.3865 | 737.2 | 0.4154
303.15 K, x1 = 0.4856 | 754.24 | 0.4304
303.15 K, x1 = 0.5861 | 772.19 | 0.4496
303.15 K, x1 = 0.6877 | 790.83 | 0.4716
303.15 K, x1 = 0.7906 | 810.42 | 0.4979
303.15 K, x1 = 0.8949 | 830.91 | 0.5308
303.15 K, x1 = 1 | 852.35 | 0.5715
313.15 K, x1 = 0.0948 | 681.45 | 0.344
313.15 K, x1 = 0.1911 | 696.52 | 0.3523
313.15 K, x1 = 0.288 | 712.12 | 0.3623
313.15 K, x1 = 0.3865 | 728.57 | 0.374
313.15 K, x1 = 0.4856 | 745.57 | 0.3865
313.15 K, x1 = 0.5861 | 763.52 | 0.4034
313.15 K, x1 = 0.6877 | 782.15 | 0.4234
313.15 K, x1 = 0.7906 | 801.71 | 0.444
313.15 K, x1 = 0.8949 | 822.21 | 0.4729
313.15 K, x1 = 1 | 843.64 | 0.508
323.15 K, x1 = 0.0948 | 672.73 | 0.3136
323.15 K, x1 = 0.1911 | 687.79 | 0.3211
323.15 K, x1 = 0.288 | 703.38 | 0.3304
323.15 K, x1 = 0.3865 | 719.83 | 0.3408
323.15 K, x1 = 0.4856 | 736.82 | 0.3529
323.15 K, x1 = 0.5861 | 754.77 | 0.3683
323.15 K, x1 = 0.6877 | 773.41 | 0.3835
323.15 K, x1 = 0.7906 | 792.97 | 0.4041
323.15 K, x1 = 0.8949 | 813.45 | 0.4285
323.15 K, x1 = 1 | 834.9 | 0.4599
333.15 K, x1 = 0.0948 | 663.88 | 0.2848
333.15 K, x1 = 0.1911 | 678.95 | 0.2922
333.15 K, x1 = 0.288 | 694.52 | 0.2997
333.15 K, x1 = 0.3865 | 710.98 | 0.3097
333.15 K, x1 = 0.4856 | 727.97 | 0.3201
333.15 K, x1 = 0.5861 | 745.92 | 0.3345
333.15 K, x1 = 0.6877 | 764.57 | 0.3537
333.15 K, x1 = 0.7906 | 784.15 | 0.3712
333.15 K, x1 = 0.8949 | 804.64 | 0.3973
333.15 K, x1 = 1 | 826.09 | 0.4298
343.15 K, x1 = 0.0948 | 654.83 | 0.2612
343.15 K, x1 = 0.1911 | 669.89 | 0.2658
343.15 K, x1 = 0.288 | 685.48 | 0.273
343.15 K, x1 = 0.3865 | 701.94 | 0.2818
343.15 K, x1 = 0.4856 | 718.94 | 0.2915
343.15 K, x1 = 0.5861 | 736.91 | 0.303
343.15 K, x1 = 0.6877 | 755.57 | 0.3166
343.15 K, x1 = 0.7906 | 775.17 | 0.3317
343.15 K, x1 = 0.8949 | 795.69 | 0.3498
343.15 K, x1 = 1 | 817.17 | 0.3783

Cc1ccc(C)cc1 [1,4-dimethylbenzene] + CCCCCCCC
Conditions | mass density [kg/m3] | viscosity [mPa·s]
298.15 K, x1 = 0.1068 | 712.9 | 0.5185
298.15 K, x1 = 0.2121 | 726.39 | 0.5172
298.15 K, x1 = 0.3156 | 740.39 | 0.5216
298.15 K, x1 = 0.4178 | 755.01 | 0.5273
298.15 K, x1 = 0.5184 | 770.21 | 0.5297
298.15 K, x1 = 0.6174 | 786.05 | 0.5393
298.15 K, x1 = 0.7152 | 802.61 | 0.5515
298.15 K, x1 = 0.8113 | 819.83 | 0.5678
298.15 K, x1 = 0.9065 | 837.91 | 0.5905
298.15 K, x1 = 1 | 856.7 | 0.6162
303.15 K, x1 = 0.1068 | 708.71 | 0.4829
303.15 K, x1 = 0.2121 | 722.17 | 0.4825
303.15 K, x1 = 0.3156 | 736.15 | 0.4833
303.15 K, x1 = 0.4178 | 750.77 | 0.4919
303.15 K, x1 = 0.5184 | 765.93 | 0.493
303.15 K, x1 = 0.6174 | 781.76 | 0.502
303.15 K, x1 = 0.7152 | 798.3 | 0.5139
303.15 K, x1 = 0.8113 | 815.51 | 0.5299
303.15 K, x1 = 0.9065 | 833.52 | 0.5489
303.15 K, x1 = 1 | 852.35 | 0.5715
313.15 K, x1 = 0.1068 | 700.44 | 0.4298
313.15 K, x1 = 0.2121 | 713.85 | 0.4298
313.15 K, x1 = 0.3156 | 727.78 | 0.4331
313.15 K, x1 = 0.4178 | 742.31 | 0.4373
313.15 K, x1 = 0.5184 | 757.45 | 0.4418
313.15 K, x1 = 0.6174 | 773.23 | 0.4483
313.15 K, x1 = 0.7152 | 789.72 | 0.4586
313.15 K, x1 = 0.8113 | 806.89 | 0.4722
313.15 K, x1 = 0.9065 | 824.89 | 0.4895
313.15 K, x1 = 1 | 843.64 | 0.508
323.15 K, x1 = 0.1068 | 692.26 | 0.3877
323.15 K, x1 = 0.2121 | 705.6 | 0.3903
323.15 K, x1 = 0.3156 | 719.47 | 0.3901
323.15 K, x1 = 0.4178 | 733.93 | 0.3952
323.15 K, x1 = 0.5184 | 749.01 | 0.3997
323.15 K, x1 = 0.6174 | 764.73 | 0.4057
323.15 K, x1 = 0.7152 | 781.17 | 0.4143
323.15 K, x1 = 0.8113 | 798.31 | 0.4269
323.15 K, x1 = 0.9065 | 816.2 | 0.4409
323.15 K, x1 = 1 | 834.9 | 0.4599
333.15 K, x1 = 0.1068 | 683.83 | 0.3528
333.15 K, x1 = 0.2121 | 697.15 | 0.3552
333.15 K, x1 = 0.3156 | 710.96 | 0.3571
333.15 K, x1 = 0.4178 | 725.38 | 0.3617
333.15 K, x1 = 0.5184 | 740.41 | 0.3671
333.15 K, x1 = 0.6174 | 756.08 | 0.3753
333.15 K, x1 = 0.7152 | 772.47 | 0.3858
333.15 K, x1 = 0.8113 | 789.52 | 0.3961
333.15 K, x1 = 0.9065 | 807.43 | 0.4138
333.15 K, x1 = 1 | 826.09 | 0.4298
343.15 K, x1 = 0.1068 | 675.29 | 0.3167
343.15 K, x1 = 0.2121 | 688.57 | 0.3164
343.15 K, x1 = 0.3156 | 702.32 | 0.3185
343.15 K, x1 = 0.4178 | 716.69 | 0.3223
343.15 K, x1 = 0.5184 | 731.68 | 0.3271
343.15 K, x1 = 0.6174 | 747.3 | 0.3329
343.15 K, x1 = 0.7152 | 763.64 | 0.341
343.15 K, x1 = 0.8113 | 780.65 | 0.3481
343.15 K, x1 = 0.9065 | 798.53 | 0.3588
343.15 K, x1 = 1 | 817.17 | 0.3783
353.15 K, x1 = 0.1068 | 666.51 | 0.2856
353.15 K, x1 = 0.2121 | 679.75 | 0.2877
353.15 K, x1 = 0.3156 | 693.48 | 0.2897
353.15 K, x1 = 0.4178 | 707.82 | 0.2939
353.15 K, x1 = 0.5184 | 722.78 | 0.2984
353.15 K, x1 = 0.6174 | 738.37 | 0.3016
353.15 K, x1 = 0.7152 | 754.7 | 0.3113
353.15 K, x1 = 0.8113 | 771.7 | 0.3174
353.15 K, x1 = 0.9065 | 789.57 | 0.3264
353.15 K, x1 = 1 | 808.22 | 0.3382
